Source: PubChem BioAssay AID449750 (Broad Institute, 2010)
The source made the active and inactive calls. How the calls were made is not given here.

Experiment: non-covalent RecA intein splicing inhibitors, dose response, biochemical, cell-free, fluorescence, secondary screen (AID 449750)

Fc1ccc(Nc2nc(NCc3ccco3)c3ccccc3n2)cc1
AC50: 7.39 µM

COC(=O)C1=NN(C(C)=O)C2(CC(=O)N(c3cc(C)cc(C)c3)C2=O)C1 (centres undefined)
AC50: > 38 µM (inactive)

O=C1c2cc([N+](=O)[O-])ccc2-c2ncccc21
AC50: > 38 µM (inactive)

Cc1nnc(Sc2cc(NCCO)c([N+](=O)[O-])c3nonc23)s1
AC50: > 38 µM (inactive)

C=CCOC(=O)C1=C(C)NC(=O)NC1c1ccc(OC(=O)c2ccco2)c(OC)c1 (centres undefined)
AC50: > 38 µM (inactive)

Cc1ccc(C)c(NC2=C(Cl)C(=O)OC2OC(=O)c2ccco2)c1 (centres undefined)
AC50: > 38 µM (inactive)

COc1ccc(N2CCN(C(=O)c3ccc(Oc4ccc(C(F)(F)F)cn4)cc3)CC2)cc1
AC50: > 38 µM (inactive)

O=C(O)COc1ccc(/C=C2/SC(=S)N(Cc3ccccc3)C2=O)cc1
AC50: 31.6 µM

C=CCNC1=C(Cl)C(=O)c2ccccc2C1=O
AC50: 18.4 µM

CCOC(=O)c1c(NC(=O)/C=C/C(=O)O)sc(C)c1-c1ccc(C)c(C)c1
AC50: 10.7 µM

Cc1ccc(NC(=O)COc2cccc(/C=C3\SC(=S)N(CCC(=O)O)C3=O)c2)cc1Cl
AC50: 10.2 µM

COc1ccc(OC)c(C(c2c(C)[nH][nH]c2=O)c2c(C)[nH][nH]c2=O)c1
AC50: 13.5 µM

O=C(CNC(=O)c1ccccc1)N/N=C/c1ccc([N+](=O)[O-])o1
AC50: > 38 µM (inactive)

COc1cccc(-n2nc(C#N)c(Cl)cc2=O)c1
AC50: > 38 µM (inactive)

CC(C)=CCC1=C(OCC(=O)O)C(=O)c2ccccc2C1=O
AC50: 10.3 µM

CC(=O)Nc1ccc(NC(=O)CSc2ncc(C(=O)Nc3ccccc3)c(=O)n2C)cc1
AC50: 1.04 µM

Cc1cc(C)cc(Cn2ncc(Cl)c(Cl)c2=O)c1
AC50: 1.38 µM

CSc1nc(O)c(Nc2cccc(Cl)c2)c(=O)[nH]1
AC50: > 38 µM (inactive)

CC1(C)C=C2C(=NN(c3ccccc3)C(N)=C2C#N)CO1
AC50: 3.43 µM

COc1cccc(NC(=O)CSc2c3c(nc4ccccc24)CCCC3)c1
AC50: 39.5 µM

Cc1ccc(Nc2cc(C)nn2-c2nc(C)cc(=O)[nH]2)cc1
AC50: 5.05 µM

Cc1c([N+](=O)[O-])cnc(Sc2ccccc2)c1[N+](=O)[O-]
AC50: 1.23 µM

Cn1cnc([N+](=O)[O-])c1Oc1cccc2ccccc12
AC50: > 38 µM (inactive)

Nc1c(N2CCCC2)cc(Cl)c2nonc12
AC50: 4.13 µM

CC(=O)n1cc(N(C(=O)CCl)c2ccc(Cl)cc2)c2ccccc21
AC50: 2.08 µM

Cc1ccsc1/C=N/NC(=O)Cc1cc(=O)[nH][nH]1
AC50: 5.95 µM

CC1CC(C)CN(C(=O)c2ccc3c(c2)N(Cc2ccccc2)CCS3)C1 (centres undefined)
AC50: 14 µM

O=S(=O)(Nc1c(O)ccc2ccccc12)c1cccc2ccccc12
AC50: 26.8 µM

COc1ccc(S(=O)(=O)c2cnc3ccccc3n2)cc1
AC50: > 38 µM (inactive)

COc1ccc(-n2c3nc4ccccc4nc3c3c(=N)oc(C)nc32)cc1
AC50: > 12 µM (inactive)

CN(Cc1ccc(Cl)s1)C(=O)CCl
AC50: 19.3 µM

O=c1c2ccccc2nc2n1CCC2
AC50: 22.9 µM

O=C(O)/C=C\C(=O)Nc1ccc(Oc2ccc(Br)cc2)cc1
AC50: 15.2 µM

CC1=NN(c2ccccc2)C(=O)/C1=C\c1cc(C)n(-c2cccnc2)c1C
AC50: > 38 µM (inactive)

Cn1c(=O)[nH]c(=O)c2c1nc([N+](=O)[O-])n2Cc1ccccc1
AC50: > 38 µM (inactive)

Cc1cc(C)cc(S(=O)(=O)c2cnc3ccccc3n2)c1
AC50: > 38 µM (inactive)

O=c1c2ccccc2nc(/C=C/c2cccnc2)n1CCc1ccccc1
AC50: 15.9 µM

CCCc1[nH]nc2c1C(c1ccc(OC(=O)c3ccco3)cc1)C(C#N)=C(N)O2 (centres undefined)
AC50: > 38 µM (inactive)

Cc1ccc(Sc2c([N+](=O)[O-])ncn2C)cc1
AC50: > 38 µM (inactive)

Oc1c(Cl)cc(Cl)c(Cl)c1Cc1c(O)c(Cl)cc(Cl)c1Cl
AC50: 6.85 µM

N#Cc1ncc(-c2ccc3c(c2)OCCOCCOCCOCCO3)nc1C#N
AC50: > 38 µM (inactive)

COc1ccc(-c2nnc(SC(=O)N3c4ccccc4Sc4ccccc43)o2)cc1
AC50: 4.86 µM

O=C(CCl)Nc1cc(S(=O)(=O)N2CCCCCC2)ccc1Cl
AC50: 4.92 µM

Cc1c(Cl)cccc1NC(=S)/C(=C(\[O-])c1ccc(Cl)s1)[n+]1ccccc1
AC50: > 38 µM (inactive)

Cc1cc(C)c(S(=O)(=O)Nc2cc(SCC(=O)O)c(O)c3ccccc23)cc1C
AC50: 2.58 µM

CCC1C(=O)N(c2nc(C)cc(C)n2)N=C1C (centres undefined)
AC50: > 38 µM (inactive)

N#CC1=C(N)Oc2n[nH]c(-c3cccs3)c2C1c1ccccc1C(=O)O (centres undefined)
AC50: 20.9 µM

O=C(Cc1cc(=O)[nH][nH]1)N/N=C/c1ccccc1Cl
AC50: 15.8 µM

Cn1nc(-c2ccccn2)nc2c(=O)n(C)c(=O)nc1-2
AC50: 0.176 µM

CC(=O)n1cc(N(C(=O)CCl)c2ccc(C)cc2)c2ccccc21
AC50: 1.38 µM

N#CC1=C(N)Oc2n[nH]c(-c3cccs3)c2C1c1cccs1 (centres undefined)
AC50: 9.22 µM

O=C1C=C(Nc2ccccc2O)c2ccccc2C1=O
AC50: > 38 µM (inactive)

COc1cc(C2C(C#N)=C(N)Oc3n[nH]c(-c4cccnc4)c32)cc(Br)c1O (centres undefined)
AC50: 4.01 µM

C/C(CC(=O)Nc1cc(C)ccn1)=N\NC(=O)c1ccc(C)cc1
AC50: > 38 µM (inactive)

Cn1c(=O)c([N+](=O)[O-])c(-n2ccnc2)c2ccccc21
AC50: > 38 µM (inactive)

O=C(CCl)c1cc2c3c(c1)CC(=O)N3CCC2
AC50: > 38 µM (inactive)

O=c1[nH]c(O)c(N=Nc2cc([N+](=O)[O-])ccc2O)c(=O)[nH]1
AC50: 2.29 µM

CC1=NN(c2ccccc2)C(=O)/C1=C/c1c(O)[nH]c(=O)[nH]c1=O
AC50: > 38 µM (inactive)

COc1ccc(Nc2nc(N3CCCCC3)nc3ccccc23)c(OC)c1
AC50: > 38 µM (inactive)

COc1ccc(-c2csc(CCN3N=C(C)CC3=O)n2)cc1
AC50: 10.1 µM

COc1ccc(N2C(=O)C(Cl)=C(N3CCOCC3)C2=O)cc1
AC50: > 38 µM (inactive)

N#Cc1c(N2CCCCC2)nc(N)c2c(N)nc(SCC(=O)O)cc12
AC50: > 38 µM (inactive)

Cc1ccc2nc(-c3cccs3)oc(=O)c2c1
AC50: > 38 µM (inactive)

CC1=NN(c2cccc(Cl)c2)C(=O)C12CC(C)=C(C)CS2 (centres undefined)
AC50: 21.7 µM

NC1=C(Br)C(=O)c2ccccc2C1=O
AC50: 13.1 µM

COc1ccc(/C=C2/C(=O)N(c3ccccc3)N=C2C)cc1
AC50: 5.27 µM

O=c1[nH]c(Nc2ccccc2)cc2ccccc12
AC50: 1.68 µM

CS(=O)(=O)c1nc(-c2ccco2)cc(C(F)(F)F)n1
AC50: > 38 µM (inactive)

Oc1ccc(O)c2c1C1c3ccccc3C2c2ccccc21
AC50: 38.4 µM

COc1cccc(NC(=S)/C(=C(\[O-])c2ccc(OC(F)F)cc2)[n+]2ccccc2)c1
AC50: 28.1 µM

Cn1cnc([N+](=O)[O-])c1S(=O)(=O)c1ccc(Cl)cc1
AC50: > 38 µM (inactive)

Cc1cc(C(=O)CCl)c(C)n1CCc1ccc(Cl)cc1
AC50: 4.99 µM

Oc1ccc(N=Cc2ccc(OCc3ccccc3)cc2)cc1
AC50: > 38 µM (inactive)

Oc1ccc(Nc2nc(-c3ccc4ccccc4c3)cs2)cc1
AC50: > 38 µM (inactive)

Cc1cc(Br)c2c(c1)/C(=C/C(=O)c1cccs1)C(=O)N2
AC50: > 38 µM (inactive)

Cc1ccc(N2C(=O)C(Cl)=C(N3CCOCC3)C2=O)c(C)c1
AC50: > 38 µM (inactive)

C/C(CC(=O)Nc1ccccn1)=N\NC(=O)Cc1cccc2ccccc12
AC50: 25.6 µM

CC1(C)Cc2ccccc2C2=NNC(=O)C2=N1
AC50: 11 µM

Nc1ccc2nc(N3CCOCC3)sc2c1
AC50: > 38 µM (inactive)

COc1cc(Br)c(C(=O)c2nccc3cc(OC)c(OC)cc23)cc1OC
AC50: 6.24 µM

CCOc1cc(/C=C2\C(=N)N3N=C(N4CCCCC4)SC3=NC2=O)ccc1OC(=O)c1ccco1
AC50: > 38 µM (inactive)

CCN1C(=O)c2c(C)nc3ccccc3c2C1=O
AC50: > 38 µM (inactive)

CCOc1ccc(CN(C)C(=O)CCl)cc1
AC50: 11.1 µM

O=[N+]([O-])c1c(Nc2ccccn2)cc(Cl)c2nonc12
AC50: 1.76 µM

CCc1ccc(S(=O)(=O)/N=C2\C=C(Nc3ccc(O)cc3)C(=O)c3ccccc32)cc1
AC50: 0.56 µM

COc1nc(NC(C)C)nc(N(C#N)CN2C(=O)c3ccccc3S2(=O)=O)n1
AC50: > 38 µM (inactive)

c1ccc(CNc2nc(NCc3ccccc3)c3ccccc3n2)cc1
AC50: 7.61 µM

CC1=NN(Cc2ccccc2)C(=O)C1C(c1ccncc1)C(C#N)C#N (centres undefined)
AC50: > 38 µM (inactive)

Cc1ccc(C(=O)NC2(O)C(=O)c3ccccc3C2=O)cc1C
AC50: 6.09 µM

O=C(CN1C(=O)S/C(=C\C=C\c2ccccc2)C1=O)Nc1ccc(C(=O)O)cc1
AC50: 29.6 µM

CCn1c(O)c(N=Nc2cccc(S(=O)(=O)N3CCOCC3)c2)c(=O)n(CC)c1=S
AC50: > 38 µM (inactive)

Cc1cc2c(N)cccc2nn1
AC50: > 38 µM (inactive)

Cc1[nH][nH]c(=O)c1C(c1ccc(O)c(Br)c1)c1c(C)[nH][nH]c1=O
AC50: 13.5 µM

O=c1c2ccccc2nc2n1CCS2(=O)=O
AC50: > 38 µM (inactive)

CCCCN(C(=O)c1cccc2c(=O)c(C)c(-c3ccccc3)oc12)c1ccccc1
AC50: 6.5 µM

COc1cccc(N2CC(C(=O)Nc3nnc(SCC(=O)c4ccccc4)s3)CC2=O)c1 (centres undefined)
AC50: > 38 µM (inactive)

CS/C(=C/[N+](=O)[O-])Nc1cccc2c1C(C)CC2(C)C (centres undefined)
AC50: > 38 µM (inactive)

CCCCC[C@H](O)/C=C/[C@@H]1[C@@H](C/C=C\CCCC(=O)OC)[C@@H](O)C[C@H]1O
AC50: 36.5 µM

CC(=O)NC(=S)c1c(N)n(Cc2ccccc2)c(=O)n(C)c1=O
AC50: > 38 µM (inactive)

Cc1ccc(NC(=O)c2cnc(SCC(=O)NCC3CCCO3)n(C)c2=O)cc1C (centres undefined)
AC50: > 38 µM (inactive)

CC1=C(CC(=O)c2ccccc2)C(=O)c2ccccc2C1=O
AC50: 16.6 µM

CC(C)(C)c1cc[n+](C2=C([O-])c3ccccc3C(=O)/C2=N\S(=O)(=O)c2ccccc2)cc1
AC50: 9.74 µM

Cc1ccc(Sc2ncnc3onc(C)c23)cc1
AC50: > 38 µM (inactive)

CCOc1cc(CNc2ccc3cn[nH]c3c2)ccc1OC
AC50: 12.7 µM

CN(C1=C(NC(=O)c2ccccc2)C(=O)c2ccccc2C1=O)C1CCS(=O)(=O)C1 (centres undefined)
AC50: 3.3 µM

Cc1nn(Cc2ccccc2)c2c1C(c1ccncc1)C(C#N)=C(N)O2 (centres undefined)
AC50: > 38 µM (inactive)

Cc1ccc(CS(=O)(=O)c2ncc(Cl)c(C(=O)Nc3nnc(C)s3)n2)cc1
AC50: > 38 µM (inactive)

O=C(CCl)N(Cc1ccccc1)c1ccccc1
AC50: 4.16 µM

CCOC(=O)c1c(NC(=O)/C=C/C(=O)O)sc(C)c1-c1ccc(F)cc1
AC50: 18 µM
